System: MF CD34+ cells
Experiment: Clonal assays of MF CD34+ cells; JAK2V617F allele status of picked hematopoietic colonies
Type: cell-based, human
Experimental: Individual hematopoietic colonies were randomly picked from clonal assays of CD34^+ cells from 6 MF cases and the JAK2V617F allele status was determined.
IL-8 alone increased the absolute numbers of JAK2V617F+ colonies, and the addition of Ladarixin reduced the numbers of JAK2V617F positive colonies stimulated by IL-8 (Tables 1-3).

[1] = MF4 CD34+ cells, ladarixin 10 μM + IL-8 10 ng
[2] = MF4 CD34+ cells, ladarixin 10 μM + IL-8 20 ng
[3] = MF4 CD34+ cells, ladarixin 10 μM + IL-8 50 ng
[4] = MF4 CD34+ cells, ladarixin 10 μM + IL-8 100 ng
[5] = MF4 CD34+ cells, ladarixin 10 μM, no IL-8
[6] = MF4 CD34+ cells, ladarixin 20 μM + IL-8 20 ng
[7] = MF4 CD34+ cells, ladarixin 20 μM, no IL-8
[8] = MF5 CD34+ cells, ladarixin 10 μM + IL-8 10 ng
[9] = MF5 CD34+ cells, ladarixin 10 μM + IL-8 20 ng
[10] = MF5 CD34+ cells, ladarixin 10 μM + IL-8 50 ng
[11] = MF5 CD34+ cells, ladarixin 10 μM + IL-8 100 ng
[12] = MF5 CD34+ cells, ladarixin 10 μM, no IL-8
[13] = MF5 CD34+ cells, ladarixin 20 μM + IL-8 20 ng
[14] = MF5 CD34+ cells, ladarixin 20 μM, no IL-8
[15] = MF6 CD34+ cells, ladarixin 10 μM + IL-8 10 ng
[16] = MF6 CD34+ cells, ladarixin 10 μM + IL-8 20 ng
[17] = MF6 CD34+ cells, ladarixin 10 μM + IL-8 50 ng
[18] = MF6 CD34+ cells, ladarixin 10 μM + IL-8 100 ng
[19] = MF6 CD34+ cells, ladarixin 10 μM, no IL-8
[20] = MF6 CD34+ cells, ladarixin 20 μM + IL-8 20 ng
[21] = MF6 CD34+ cells, ladarixin 20 μM, no IL-8

C[C@@H](C(=O)NS(C)(=O)=O)c1ccc(OS(=O)(=O)C(F)(F)F)cc1 [Ladarixin, R(-)-2-[(4′-trifluoromethanesulfonyloxy)phenyl]-N-methanesulfonyl propionamide]
number of colonies, WT (JAK2 wild type) (MF3 CD34+ cells, ladarixin 20 μM, no IL-8): 35 | number of colonies, Heter (JAK2V617F heterozygous) [1]: 137 | number of colonies, Homo (JAK2V617F homozygous) [1]: 0 | number of colonies, Wild (JAK2 wild type) [1]: 0 | number of colonies, Heter (JAK2V617F heterozygous) [2]: 113 | number of colonies, Homo (JAK2V617F homozygous) [2]: 0 | number of colonies, Wild (JAK2 wild type) [2]: 0 | number of colonies, Heter (JAK2V617F heterozygous) [3]: 137 | number of colonies, Homo (JAK2V617F homozygous) [3]: 0 | number of colonies, Wild (JAK2 wild type) [3]: 0 | number of colonies, Heter (JAK2V617F heterozygous) [4]: 112 | number of colonies, Homo (JAK2V617F homozygous) [4]: 7 | number of colonies, Wild (JAK2 wild type) [4]: 0 | number of colonies, Heter (JAK2V617F heterozygous) [5]: 163 | number of colonies, Homo (JAK2V617F homozygous) [5]: 23 | number of colonies, Wild (JAK2 wild type) [5]: 0 | number of colonies, Heter (JAK2V617F heterozygous) [6]: 134 | number of colonies, Homo (JAK2V617F homozygous) [6]: 0 | number of colonies, Wild (JAK2 wild type) [6]: 0 | number of colonies, Heter (JAK2V617F heterozygous) [7]: 142 | number of colonies, Homo (JAK2V617F homozygous) [7]: 0 | number of colonies, Wild (JAK2 wild type) [7]: 0 | number of colonies, Heter (JAK2V617F heterozygous) [8]: 0 | number of colonies, Homo (JAK2V617F homozygous) [8]: 0 | number of colonies, Wild (JAK2 wild type) [8]: 148 | number of colonies, Heter (JAK2V617F heterozygous) [9]: 0 | number of colonies, Homo (JAK2V617F homozygous) [9]: 0 | number of colonies, Wild (JAK2 wild type) [9]: 138 | number of colonies, Heter (JAK2V617F heterozygous) [10]: 0 | number of colonies, Homo (JAK2V617F homozygous) [10]: 0 | number of colonies, Wild (JAK2 wild type) [10]: 151 | number of colonies, Heter (JAK2V617F heterozygous) [11]: 0 | number of colonies, Homo (JAK2V617F homozygous) [11]: 0 | number of colonies, Wild (JAK2 wild type) [11]: 144 | number of colonies, Heter (JAK2V617F heterozygous) [12]: 0 | number of colonies, Homo (JAK2V617F homozygous) [12]: 0 | number of colonies, Wild (JAK2 wild type) [12]: 107 | number of colonies, Heter (JAK2V617F heterozygous) [13]: 0 | number of colonies, Homo (JAK2V617F homozygous) [13]: 0 | number of colonies, Wild (JAK2 wild type) [13]: 131 | number of colonies, Heter (JAK2V617F heterozygous) [14]: 0 | number of colonies, Homo (JAK2V617F homozygous) [14]: 0 | number of colonies, Wild (JAK2 wild type) [14]: 141 | number of colonies, Heter (JAK2V617F heterozygous) [15]: 0 | number of colonies, Homo (JAK2V617F homozygous) [15]: 0 | number of colonies, Wild (JAK2 wild type) [15]: 119 | number of colonies, Heter (JAK2V617F heterozygous) [16]: 0 | number of colonies, Homo (JAK2V617F homozygous) [16]: 0 | number of colonies, Wild (JAK2 wild type) [16]: 121 | number of colonies, Heter (JAK2V617F heterozygous) [17]: 0 | number of colonies, Homo (JAK2V617F homozygous) [17]: 0 | number of colonies, Wild (JAK2 wild type) [17]: 122 | number of colonies, Heter (JAK2V617F heterozygous) [18]: 0 | number of colonies, Homo (JAK2V617F homozygous) [18]: 0 | number of colonies, Wild (JAK2 wild type) [18]: 119 | number of colonies, Heter (JAK2V617F heterozygous) [19]: 0 | number of colonies, Homo (JAK2V617F homozygous) [19]: 0 | number of colonies, Wild (JAK2 wild type) [19]: 119 | number of colonies, Heter (JAK2V617F heterozygous) [20]: 0 | number of colonies, Homo (JAK2V617F homozygous) [20]: 0 | number of colonies, Wild (JAK2 wild type) [20]: 106 | number of colonies, Heter (JAK2V617F heterozygous) [21]: 0 | number of colonies, Homo (JAK2V617F homozygous) [21]: 0 | number of colonies, Wild (JAK2 wild type) [21]: 105 | numbers of JAK2V617F positive colonies stimulated by IL-8 (addition of Ladarixin, 6 MF cases): reduced

Source: patent publication US20240115527A1, “CXCR1/CXCR2 INHIBITORS FOR USE IN TREATING MYELOFIBROSIS” (Icahn School of Medicine at Mount Sinai, priority 2020, published 2024)
